Blank lines part the entries; values can stand above or below the molecule they belong to.
Tests used:
[1] = biological target: Leucine-rich repeat serine/threonine-protein kinase 2 (Homo sapiens, UniProt Q5S007, G2019S); experiment: Inhibition of recombinant N-terminal GST-fused LRRK2 […] mutant (970 to 2527 residues) (unknown origin) using LRRKtide peptide as substrate assessed as inhibition of substrate phosphorylation preincubated with compound for 15 mins followed by substrate addition and measured after 90 mins in presence of ATP by TR-FRET assay
[2] = biological target: Leucine-rich repeat serine/threonine-protein kinase 2 (Homo sapiens) (UniProt Q5S007); experiment: Inhibition of LRRK2 in human PBMC using LRRKtide peptide as substrate assessed as Ser935 dephosphorylation preincubated with compound for 15 mins followed by substrate addition and measured after 90 mins in presence of ATP by TR-FRET assay; format: cell-based; details: time 105.0 min
[3] = Total clearance in Wistar-Han rat at 0.1 mg/kg, iv administered as cassette dose by LC-MS/MS analysis; format: ADME, organism-based; details: in vivo
[4] = Intrinsic clearance in Wistar-Han rat at 0.1 mg/kg, iv administered as cassette dose by LC-MS/MS analysis; format: ADME, organism-based; details: in vivo
[5] = MRT in Wistar-Han rat at 0.1 mg/kg, iv administered as cassette dose by LC-MS/MS analysis; format: ADME, organism-based; details: in vivo
[6] = biological target: T1, Serine/threonine-protein kinase BRSK1 (Homo sapiens, UniProt Q8TDC3); experiment: Inhibition of BRSK1 (unknown origin)
T1 sequence (Q8TDC3 whole entry): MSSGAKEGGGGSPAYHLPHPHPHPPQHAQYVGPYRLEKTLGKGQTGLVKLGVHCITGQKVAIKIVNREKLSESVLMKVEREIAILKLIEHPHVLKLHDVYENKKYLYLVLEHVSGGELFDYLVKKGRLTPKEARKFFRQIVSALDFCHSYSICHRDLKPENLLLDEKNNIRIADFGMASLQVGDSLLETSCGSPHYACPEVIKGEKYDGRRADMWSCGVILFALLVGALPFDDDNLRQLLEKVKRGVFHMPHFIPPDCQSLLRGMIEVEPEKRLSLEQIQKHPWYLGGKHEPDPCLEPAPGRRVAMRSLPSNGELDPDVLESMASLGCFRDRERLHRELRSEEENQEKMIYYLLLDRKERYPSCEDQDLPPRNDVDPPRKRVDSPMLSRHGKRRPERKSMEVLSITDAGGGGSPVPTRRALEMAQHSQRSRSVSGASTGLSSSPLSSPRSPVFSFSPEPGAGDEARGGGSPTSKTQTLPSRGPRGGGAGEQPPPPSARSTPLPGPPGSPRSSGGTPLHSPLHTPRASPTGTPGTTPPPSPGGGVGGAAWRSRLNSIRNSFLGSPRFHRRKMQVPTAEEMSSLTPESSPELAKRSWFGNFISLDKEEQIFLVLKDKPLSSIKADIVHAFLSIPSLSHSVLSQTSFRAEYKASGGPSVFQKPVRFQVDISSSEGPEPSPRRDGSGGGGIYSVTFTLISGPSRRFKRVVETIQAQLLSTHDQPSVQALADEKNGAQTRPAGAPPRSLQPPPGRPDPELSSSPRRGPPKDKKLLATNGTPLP

[7] = Mutagenicity in Salmonella typhimurium TA1535 at 30 to 5000 ug/plate incubated for 48 hrs in absence of Wistar-Han rat S9 fraction by Ames test; format: toxicity; details: salmonella enterica subsp. enterica serovar typhimurium, s9, 48 h
[8] = Mutagenicity in Salmonella typhimurium TA98 at 30 to 5000 ug/plate incubated for 48 hrs in absence of Wistar-Han rat S9 fraction by Ames test; format: toxicity; details: salmonella enterica subsp. enterica serovar typhimurium, s9, 48 h
[9] = Mutagenicity in Salmonella typhimurium TA100 at 30 to 5000 ug/plate incubated for 48 hrs in absence of Wistar-Han rat S9 fraction by Ames test; format: toxicity; details: salmonella enterica subsp. enterica serovar typhimurium, s9, 48 h
[10] = Mutagenicity in Salmonella typhimurium TA1535 at 30 to 5000 ug/plate incubated for 48 hrs in presence of Wistar-Han rat S9 fraction by Ames test; format: toxicity, subcellular; details: salmonella enterica subsp. enterica serovar typhimurium, s9, 48 h
[11] = Mutagenicity in Salmonella typhimurium TA98 at 30 to 5000 ug/plate incubated for 48 hrs in presence of Wistar-Han rat S9 fraction by Ames test; format: toxicity, subcellular; details: salmonella enterica subsp. enterica serovar typhimurium, s9, 48 h
[12] = Mutagenicity in Salmonella typhimurium TA100 at 30 to 5000 ug/plate incubated for 48 hrs in presence of Wistar-Han rat S9 fraction by Ames test; format: toxicity, subcellular; details: salmonella enterica subsp. enterica serovar typhimurium, s9, 48 h
[13] = Total clearance in Wistar-Han rat at 2 mg/kg, iv measured after 24 hrs by LC-MS/MS analysis; format: ADME, organism-based; details: in vivo
[14] = Intrinsic clearance in Wistar-Han rat at 2 mg/kg, iv measured after 24 hrs by LC-MS/MS analysis; format: ADME, organism-based; details: in vivo
[15] = MRT in Wistar-Han rat at 2 mg/kg, iv measured after 24 hrs by LC-MS/MS analysis; format: ADME, organism-based; details: in vivo
[16] = Oral bioavailability in Wistar-Han rat at 10 mg/kg measured after 24 hrs by LC-MS/MS analysis; format: ADME, organism-based; details: in vivo
[17] = Total clearance in Beagle dog at 0.05 mg/kg, iv administered as cassette dose by LC-MS/MS analysis; format: ADME, organism-based, Canis lupus familiaris; details: in vivo
[18] = Intrinsic clearance in Beagle dog at 0.05 mg/kg, iv administered as cassette dose by LC-MS/MS analysis; format: ADME, organism-based, Canis lupus familiaris; details: in vivo
[19] = MRT in Beagle dog at 0.05 mg/kg, iv administered as cassette dose by LC-MS/MS analysis; format: ADME, organism-based, Canis lupus familiaris; details: in vivo
[20] = Unbound brain-to-plasma concentration ratio in iv dosed Wistar-Han rat administered as cassette dose by LC-MS/MS analysis; format: ADME, organism-based; details: read-out: K(p,uu,brain)
[21] = Oral bioavailability in Wistar-Han rat at 5 mg/kg measured after 24 hrs by LC-MS/MS analysis; format: ADME, organism-based; details: in vivo
[22] = Drug metabolism in rat assessed as amide hydrolysis mediated metabolite formation by MetID analysis; format: ADME
[23] = Drug metabolism in rat assessed as oxidative metabolism of piperazine-THF alcohol lysine region fragment by MetID analysis; format: ADME
[24] = Drug metabolism in dog assessed as oxidative metabolism of piperazine-THF alcohol lysine region fragment by MetID analysis; format: ADME, Canis lupus familiaris
[25] = Drug metabolism in dog assessed as amide hydrolysis mediated metabolite formation by MetID analysis; format: ADME, Canis lupus familiaris
rat Mdr1a P-gp = experiment: Apparent permeability across apical to basolateral side in LLC-PK1 cells transfected with rat Mdr1a P-gp incubated for 3 hrs by LC-MS/MS analysis; details: pig
rat Mdrl1 P-gp = experiment: Efflux ratio of apparent permeability across basolateral to apical over apical to basolateral side in MDCK cells transfected with rat Mdrl1 P-gp incubated for 3 hrs by LC-MS/MS analysis; details: dog, MDCK-MDR1
mouse BCRP = experiment: Efflux ratio of apparent permeability across basolateral to apical over apical to basolateral side in MDCK-II cells transfected with mouse BCRP incubated for 3 hrs by LC-MS/MS analysis; details: dog
[26] = biological target: Voltage-gated inwardly rectifying potassium channel KCNH2 (Homo sapiens, UniProt Q12809); experiment: Inhibition of hERG expressed in CHO cells by QPatch voltage clamp assay
[27] = Lipophilicity, logD of compound at pH 7 by HT-HPLC/DAD analysis; format: physicochemical; details: buffer

Leucine-rich repeat serine/threonine-protein kinase 2, sequence (Q5S007 whole entry G2019S, the tested form may be a part): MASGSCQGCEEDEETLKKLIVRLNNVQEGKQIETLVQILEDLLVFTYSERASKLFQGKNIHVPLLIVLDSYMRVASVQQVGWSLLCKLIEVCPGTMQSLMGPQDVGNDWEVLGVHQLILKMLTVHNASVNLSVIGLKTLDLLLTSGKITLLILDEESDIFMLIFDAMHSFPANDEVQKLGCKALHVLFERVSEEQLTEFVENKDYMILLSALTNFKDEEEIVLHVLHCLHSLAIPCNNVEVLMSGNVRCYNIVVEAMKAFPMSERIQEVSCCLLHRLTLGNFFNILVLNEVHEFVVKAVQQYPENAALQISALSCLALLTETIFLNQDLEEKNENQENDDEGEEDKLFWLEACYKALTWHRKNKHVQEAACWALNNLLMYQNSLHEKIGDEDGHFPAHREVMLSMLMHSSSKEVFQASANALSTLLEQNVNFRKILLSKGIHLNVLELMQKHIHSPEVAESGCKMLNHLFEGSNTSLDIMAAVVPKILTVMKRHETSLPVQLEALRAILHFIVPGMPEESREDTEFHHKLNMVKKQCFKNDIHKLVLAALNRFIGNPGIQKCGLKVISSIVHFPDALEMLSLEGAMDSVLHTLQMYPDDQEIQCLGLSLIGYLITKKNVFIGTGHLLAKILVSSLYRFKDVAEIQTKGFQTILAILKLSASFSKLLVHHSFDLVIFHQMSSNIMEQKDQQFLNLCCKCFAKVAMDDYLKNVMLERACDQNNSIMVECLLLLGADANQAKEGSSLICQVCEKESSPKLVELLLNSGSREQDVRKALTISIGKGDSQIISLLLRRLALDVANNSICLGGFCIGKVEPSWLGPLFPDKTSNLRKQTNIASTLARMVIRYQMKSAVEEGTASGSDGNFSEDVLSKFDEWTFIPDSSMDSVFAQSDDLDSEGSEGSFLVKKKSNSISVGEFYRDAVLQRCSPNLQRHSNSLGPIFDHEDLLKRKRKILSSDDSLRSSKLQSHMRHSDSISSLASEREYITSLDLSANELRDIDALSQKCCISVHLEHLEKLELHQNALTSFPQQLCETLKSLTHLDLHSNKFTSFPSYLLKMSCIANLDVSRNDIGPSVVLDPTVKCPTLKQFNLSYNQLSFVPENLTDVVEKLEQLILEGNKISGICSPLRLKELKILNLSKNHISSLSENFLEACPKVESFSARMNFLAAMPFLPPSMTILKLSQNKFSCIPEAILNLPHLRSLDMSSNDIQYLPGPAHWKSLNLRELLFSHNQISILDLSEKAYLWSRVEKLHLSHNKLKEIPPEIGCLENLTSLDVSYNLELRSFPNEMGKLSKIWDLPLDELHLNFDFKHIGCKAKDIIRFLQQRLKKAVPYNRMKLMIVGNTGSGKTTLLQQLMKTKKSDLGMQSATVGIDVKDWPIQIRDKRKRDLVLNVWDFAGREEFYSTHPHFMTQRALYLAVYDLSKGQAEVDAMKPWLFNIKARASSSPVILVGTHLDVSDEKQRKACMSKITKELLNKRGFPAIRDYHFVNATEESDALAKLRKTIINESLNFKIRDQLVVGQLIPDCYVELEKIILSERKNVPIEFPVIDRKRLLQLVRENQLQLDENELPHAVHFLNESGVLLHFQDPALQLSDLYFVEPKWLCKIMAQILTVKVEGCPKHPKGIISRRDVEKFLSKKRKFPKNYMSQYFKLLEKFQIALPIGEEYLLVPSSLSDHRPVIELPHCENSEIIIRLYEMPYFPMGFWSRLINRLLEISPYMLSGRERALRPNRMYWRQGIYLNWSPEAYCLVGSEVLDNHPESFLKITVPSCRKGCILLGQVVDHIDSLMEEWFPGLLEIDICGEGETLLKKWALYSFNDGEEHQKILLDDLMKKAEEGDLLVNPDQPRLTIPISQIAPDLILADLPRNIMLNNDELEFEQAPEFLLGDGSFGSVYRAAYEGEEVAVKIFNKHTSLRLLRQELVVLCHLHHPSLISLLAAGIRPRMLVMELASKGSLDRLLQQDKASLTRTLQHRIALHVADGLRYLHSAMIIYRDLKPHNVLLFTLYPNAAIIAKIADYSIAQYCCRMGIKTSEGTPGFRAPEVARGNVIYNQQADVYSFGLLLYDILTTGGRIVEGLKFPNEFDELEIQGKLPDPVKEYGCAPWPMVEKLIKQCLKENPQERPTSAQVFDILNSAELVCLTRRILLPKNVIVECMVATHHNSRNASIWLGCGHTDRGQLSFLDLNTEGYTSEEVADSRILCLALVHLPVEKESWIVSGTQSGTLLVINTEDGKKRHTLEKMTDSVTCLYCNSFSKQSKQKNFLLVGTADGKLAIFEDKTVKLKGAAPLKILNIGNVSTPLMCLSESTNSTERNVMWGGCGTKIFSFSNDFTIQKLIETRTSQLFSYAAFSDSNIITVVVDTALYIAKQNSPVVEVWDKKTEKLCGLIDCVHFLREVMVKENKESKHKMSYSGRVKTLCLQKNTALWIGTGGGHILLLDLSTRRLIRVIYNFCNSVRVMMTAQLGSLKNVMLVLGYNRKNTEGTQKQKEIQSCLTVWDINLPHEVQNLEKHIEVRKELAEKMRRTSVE
Leucine-rich repeat serine/threonine-protein kinase 2 (Homo sapiens), sequence (Q5S007 whole entry): as the sequence (Q5S007 whole entry G2019S, the tested form may be a part) above, with S2019G counted along it
Voltage-gated inwardly rectifying potassium channel KCNH2, sequence (Q12809 whole entry): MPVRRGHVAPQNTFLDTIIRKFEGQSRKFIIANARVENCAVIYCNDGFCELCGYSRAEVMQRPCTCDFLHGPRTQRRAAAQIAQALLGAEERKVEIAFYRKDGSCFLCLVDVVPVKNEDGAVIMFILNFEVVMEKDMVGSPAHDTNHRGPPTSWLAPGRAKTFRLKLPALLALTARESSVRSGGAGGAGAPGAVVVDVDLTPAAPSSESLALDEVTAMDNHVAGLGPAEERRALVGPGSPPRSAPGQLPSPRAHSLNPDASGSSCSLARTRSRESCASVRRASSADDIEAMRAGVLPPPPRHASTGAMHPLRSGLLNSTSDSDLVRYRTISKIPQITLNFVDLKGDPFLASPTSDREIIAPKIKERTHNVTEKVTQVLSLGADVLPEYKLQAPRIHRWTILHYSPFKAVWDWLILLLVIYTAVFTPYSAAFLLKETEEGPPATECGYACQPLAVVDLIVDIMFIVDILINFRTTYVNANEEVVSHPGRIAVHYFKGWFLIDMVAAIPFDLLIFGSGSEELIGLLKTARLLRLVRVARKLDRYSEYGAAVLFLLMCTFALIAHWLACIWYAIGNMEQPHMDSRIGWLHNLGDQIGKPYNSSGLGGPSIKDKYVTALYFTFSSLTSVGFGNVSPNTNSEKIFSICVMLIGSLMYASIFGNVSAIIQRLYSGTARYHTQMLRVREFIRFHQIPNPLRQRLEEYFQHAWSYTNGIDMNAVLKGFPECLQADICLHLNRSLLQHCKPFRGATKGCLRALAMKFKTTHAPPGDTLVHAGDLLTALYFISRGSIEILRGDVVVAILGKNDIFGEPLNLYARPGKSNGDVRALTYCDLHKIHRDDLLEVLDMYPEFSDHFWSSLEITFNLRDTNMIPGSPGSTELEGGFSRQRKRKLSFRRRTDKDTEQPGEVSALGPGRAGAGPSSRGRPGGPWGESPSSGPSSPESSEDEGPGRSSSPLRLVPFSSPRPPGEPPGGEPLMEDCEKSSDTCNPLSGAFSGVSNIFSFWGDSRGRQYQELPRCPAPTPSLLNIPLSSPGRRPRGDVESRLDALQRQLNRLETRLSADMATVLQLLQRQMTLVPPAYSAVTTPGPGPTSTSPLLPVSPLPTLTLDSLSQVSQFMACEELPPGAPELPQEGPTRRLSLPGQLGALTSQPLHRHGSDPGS

IC50 [1]: < 0.08 nM | fIC50 [2]: 4.5 nM | clearance [3]: 12 mL/min/kg | CL [4]: 684 mL/min/kg | MRT [5]: 3.2 h | IC50 [6]: 43 nM
Compound: C[C@@]1(N2CCC(c3cc4cc(NC(=O)C5CC5)ncc4cc3Cl)CC2)COC[C@@H]1O

Compound: C[C@@]1(N2CCC(c3cc4cc(N)ncc4cc3Cl)CC2)COC[C@@H]1O
Activity [7]: Non-Toxic | Activity [8]: Non-Toxic | Activity [9]: Non-Toxic | Activity [10]: Non-Toxic | Activity [11]: Non-Toxic | Activity [12]: Non-Toxic

clearance [13]: 35 mL/min/kg | CL [14]: 875 mL/min/kg | MRT [15]: 2.7 h | bioavailability [16]: 67% | clearance [17]: 18 mL/min/kg | CL [18]: 422 mL/min/kg | MRT [19]: 12 h
Compound: C[C@@]1(N2CCC(c3cc4cc(NC(=O)[C@H]5CC56CCOCC6)ncc4cc3Cl)CC2)COC[C@@H]1O

Compound: C[C@@]1(N2CCN(c3cc4cc(N)ncc4cc3Cl)CC2)COC[C@@H]1O
Activity [7]: Non-Toxic | Activity [8]: Non-Toxic | Activity [9]: Non-Toxic | Activity [10]: Non-Toxic | Activity [11]: Non-Toxic | Activity [12]: Non-Toxic

fIC50 [2]: 1.2 nM | clearance [3]: 21 mL/min/kg | CL [4]: 731 mL/min/kg | MRT [5]: 2.6 h | Kp uu [20]: 0.3
Compound: Cn1ccc([C@H]2C[C@@H]2C(=O)Nc2cc3cc(C4CCN([C@]5(C)COC[C@@H]5O)CC4)c(Cl)cc3cn2)n1

clearance [3]: 41 mL/min/kg | CL [4]: 840 mL/min/kg | MRT [5]: 2.1 h | Kp uu [20]: 0.3
Compound: COC(C)(C)[C@@H]1C[C@H]1C(=O)Nc1cc2cc(C3CCN([C@]4(C)COC[C@@H]4O)CC3)c(Cl)cc2cn1

fIC50 [2]: 0.2 nM | clearance [13]: 13 mL/min/kg | CL [14]: 341 mL/min/kg | MRT [15]: 5.6 h | bioavailability [21]: 46% | Drug metabolism [22]: Metabolite_Notdetected | Drug metabolism [23]: Metabolite_Detected | Drug metabolism [24]: Metabolite_Detected | Drug metabolism [25]: Metabolite_Detected
Compound: C[C@@]1(N2CCC(c3cc4cc(NC(=O)[C@H]5C[C@@H]5c5ccccn5)ncc4cc3Cl)CC2)COC[C@@H]1O

IC50 [1]: 3 nM | fIC50 [2]: 168 nM | clearance [3]: 10 mL/min/kg | CL [4]: 429 mL/min/kg | MRT [5]: 3.3 h | Papp A→B at 3 h (rat Mdr1a P-gp): 34 ×10⁻⁶ cm/s | efflux ratio at 3 h (rat Mdrl1 P-gp): 0.9 | efflux ratio at 3 h (mouse BCRP): 1.1
Compound: CC1(N2CCC(c3cc4cc(NC(=O)C5CC5)ncc4cc3Cl)CC2)COC1

IC50 [1]: 0.8 nM | fIC50 [2]: 112 nM
Compound: Cn1cc(C(=O)Nc2cc3cc(C4CCN([C@]5(C)COC[C@@H]5O)CC4)c(Cl)cc3cn2)cn1

IC50 [1]: < 0.08 nM | clearance [3]: 22 mL/min/kg | CL [4]: 276 mL/min/kg | MRT [5]: 3.1 h | Papp A→B at 3 h (rat Mdr1a P-gp): 33 ×10⁻⁶ cm/s | efflux ratio at 3 h (rat Mdrl1 P-gp): 9
Compound: CC(C)(O)[C@H]1C[C@H]1C(=O)Nc1cc2cc(C3CCN([C@]4(C)COC[C@@H]4O)CC3)c(Cl)cc2cn1

IC50 [1]: 0.5 nM | fIC50 [2]: 0.28 nM | clearance [3]: 17 mL/min/kg | CL [4]: 302 mL/min/kg | MRT [5]: 4.4 h | Papp A→B at 3 h (rat Mdr1a P-gp): 29 ×10⁻⁶ cm/s | efflux ratio at 3 h (rat Mdrl1 P-gp): 12
Compound: Cn1cc([C@H]2C[C@@H]2C(=O)Nc2cc3cc(C4CCN([C@]5(C)COC[C@@H]5O)CC4)c(Cl)cc3cn2)cn1
IC50 [26]: 9500 nM

IC50 [1]: < 0.08 nM | fIC50 [2]: 12 nM | clearance [3]: 31 mL/min/kg | CL [4]: 241 mL/min/kg | MRT [5]: 3.2 h | clearance [17]: 10 mL/min/kg | CL [18]: 76 mL/min/kg | MRT [19]: 9.8 h | logD [27]: 3.6
Compound: Cc1cc2cnc(NC(=O)C3CC34CC4)cc2cc1C1CCN([C@]2(C)COC[C@@H]2O)CC1 (some centres not stated)
IC50 [26]: 4800 nM

— ChEMBL document CHEMBL5370643, “Discovery of MK-1468: A Potent, Kinome-Selective, Brain-Penetrant Amidoisoquinoline LRRK2 Inhibitor for the Potential Treatment of Parkinson's Disease” (J Med Chem, 2023)
